Assay results published in patent US9790169B2, “IDO inhibitors” (BRISTOL-MYERS SQUIBB COMPANY, priority 2015, dated 2017).

target: human IDO1 (Homo sapiens, UniProt P14902); assay: Assessment of human IDO-1 inhibitory activity in Hela cells (Interferon-gamma stimulated HeLa cells, Ehrlich reagent, absorbance 490 nm); assay type: cell-based; set-up: endogenous in cells; host or cells: HeLa cells stimulated with interferon-gamma; conditions: Hela Human IDO-1 cellular assay
Description: Exemplary compounds were tested for inhibition of IDO activity.
Assessment of Human IDO-1 Inhibitory Activity in Hela Cells
HeLa cells were seeded at 20,000 cells per 30 μL per well with RPMI/phenol red free media containing 10% FBS in a 384-well tissue culture plate (black with clear bottoms). 50 nL of compound was added to cells and incubated at 37° C. for one hour. 20 μL of the recombinant human Interferon-gamma (R&D System, Cat. #285-IF, at final concentration of 10 ng/ml) or recombinant murine Interferon-gamma (PEPROTECH® Inc., Cat. #315-05, final concentration of 5 ng/ml) was added to activate IDO signaling. The cells were incubated for 18 hours in 37° C. incubator with 5% CO2.
Compound treatment was stopped by adding 5 μl trichloroacetic acid to a final concentration of 3%. Subsequently, the cell plate was further incubated at 50° C. for 30 minute. An equal volume supernatant (20 μL) and 2% (w/v) Ehrlich reagent (4-dimethylaminobenzaldehyde) in glacial acetic acid were mixed in a new clear bottom 384-well plate. This plate was incubated at room temperature for 30 minutes. Absorbance at 490 nm was measured on Envision plate reader.
Compound IC50 values were calculated using counts from unstimulated (no INF-gamma treatment) wells as 100% inhibition. INF-gamma treatment without compound treatment as 0% inhibition.

Chain of human IDO1 (P14902 whole entry): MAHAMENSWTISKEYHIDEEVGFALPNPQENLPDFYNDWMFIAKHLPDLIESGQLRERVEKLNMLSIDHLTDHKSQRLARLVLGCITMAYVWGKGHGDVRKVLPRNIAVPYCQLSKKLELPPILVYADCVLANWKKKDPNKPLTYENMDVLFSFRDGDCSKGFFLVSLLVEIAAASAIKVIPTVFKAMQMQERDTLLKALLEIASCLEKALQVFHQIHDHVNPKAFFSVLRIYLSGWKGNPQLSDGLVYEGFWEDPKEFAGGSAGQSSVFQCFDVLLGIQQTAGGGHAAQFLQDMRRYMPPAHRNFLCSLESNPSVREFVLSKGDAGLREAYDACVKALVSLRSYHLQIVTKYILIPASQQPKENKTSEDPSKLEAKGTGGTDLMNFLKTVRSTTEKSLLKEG

Row | Structure (SMILES) | IC50 [nM]
1 | CCN(c1ccc(C(CC(=O)O)C2CC2)cc1NC(=O)Nc1ccc(C)cc1)C1CCOCC1 (single isomer, unassigned) [Example 40 Enantiomer 2, 3-Cyclopropyl-3-(4-(ethyl(tetrahydro-2H-pyran-4-yl)amino)-3-(3-(p-tolyl)ureido)phenyl)propanoic acid] | < 50
2 | CCC(CC(=O)O)c1ccc(N2CCC(C)CC2)c(Nc2ccc(C#N)cc2)c1 (single isomer, unassigned) [Example 41 Enantiomer 1, 3-(3-((4-Cyanophenyl)amino)-4-(4-methylpiperidin-1-yl)phenyl)pentanoic acid] | < 50
3 | CCC(CC(=O)O)c1ccc(N2CCC(C)CC2)c(Nc2cnc(OC)nc2)c1 (single isomer, unassigned) [Example 42, 3-(3-((2-methoxypyrimidin-5-yl)amino)-4-(4-methylpiperidin-1-yl)phenyl)pentanoic acid] | > 50
4 | CCOc1ncc(Nc2cc(C(CC)CC(=O)O)ccc2N2CCC(C)CC2)cn1 (single isomer, unassigned) [Example 43, 3-(3-((2-ethoxypyrimidin-5-yl)amino)-4-(4-methylpiperidin-1-yl)phenyl)pentanoic acid] | > 50
5 | CCC(CC(=O)O)c1ccc(N2CCC(C)CC2)c(NC(=O)Nc2ccc(C)cc2)c1 (single isomer, unassigned) [Example 46 Enantiomer 1, 3-(4-(4-Methylpiperidin-1-yl)-3-(3-(p-tolyl)ureido)phenyl)pentanoic acid] | > 50
6 | CCOc1ncc(Nc2cc(C(CC)CC(=O)O)ccc2N2CCC(c3ccccc3)CC2)cn1 (single isomer, unassigned) [Example 47 Enantiomer 1, 3-(3-((2-Ethoxypyrimidin-5-yl)amino)-4-(4-phenylpiperidin-1-yl)phenyl)pentanoic acid] | < 5
7 | CCOc1ncc(Nc2cc(C(CC)CC(=O)O)ccc2N2CCC(c3ccccc3)CC2)cn1 (single isomer, unassigned) [Example 47 Enantiomer 2, 3-(3-((2-Ethoxypyrimidin-5-yl)amino)-4-(4-phenylpiperidin-1-yl)phenyl)pentanoic acid] | < 50
8 | CC(CC(=O)O)c1ccc(N(CC(C)(C)O)C2CCCCC2)c(Nc2ccc(Cl)cc2)c1 (single isomer, unassigned) [Example 48 Enantiomer 1, 3-(3-((4-Chlorophenyl)amino)-4-(cyclohexyl(2-hydroxy-2-methylpropyl)amino)phenyl)butanoic acid] | < 5
9 | CC(CC(=O)O)c1ccc(N(CC(C)(C)O)C2CCCCC2)c(Nc2ccc3c(c2)OC(F)(F)O3)c1 (single isomer, unassigned) [Example 49, 3-(4-(cyclohexyl(2-hydroxy-2-methylpropyl)amino)-3-((2,2-difluorobenzo[d][1,3]dioxol-5-yl)amino)phenyl)butanoic acid] | < 50
10 | CCC(CC(=O)O)c1ccc(N(CC)C2CCCOC2)c(Nc2ccc(C#N)cc2)c1 (single isomer, unassigned) [Example 61, 3-(3-((4-cyanophenyl)amino)-4-(ethyl(tetrahydro-2H-pyran-3-yl)amino)phenyl)pentanoic acid] | < 5
11 | CCC(CC(=O)O)c1ccc(N(CC)C2CCCOC2)c(Nc2cnc(OC)nc2)c1 (single isomer, unassigned) [Example 62, 3-(4-(ethyl(tetrahydro-2H-pyran-3-yl)amino)-3-((2-methoxypyrimidin-5-yl)amino)phenyl)pentanoic acid] | < 5
12 | CCOc1ncc(Nc2cc(C(CC)CC(=O)O)ccc2N(CC)C2CCCOC2)cn1 (single isomer, unassigned) [Example 63, 3-(3-((2-ethoxypyrimidin-5-yl)amino)-4-(ethyl(tetrahydro-2H-pyran-3-yl)amino)phenyl)pentanoic acid] | < 5
13 | CCC(CC(=O)O)c1ccc(N(CC)C2CCCOC2)c(Nc2cnc(OC)nc2)c1 (single isomer, unassigned) [Example 65, 3-(4-(ethyl(tetrahydro-2H-pyran-3-yl)amino)-3-((2-methoxypyrimidin-5-yl)amino)phenyl)pentanoic acid] | < 5
14 | CCC(CC(=O)O)c1ccc(N(CC)C2CCCOC2)c(Nc2cnc(OC)nc2)c1 (single isomer, unassigned) [Example 68, 3-(4-(ethyl(tetrahydro-2H-pyran-3-yl)amino)-3-((2-methoxypyrimidin-5-yl)amino)phenyl)pentanoic acid] | < 50
15 | CCC(CC(=O)O)c1cc(F)c(N(CC)C2CCOCC2)c(Nc2ccc(Cl)cc2)c1 (single isomer, unassigned) [Example 133, 3-(3-((4-Chlorophenyl)amino)-4-(ethyl(tetrahydro-2H-pyran-4-yl)amino)-5-fluorophenyl)pentanoic acid] | < 5
16 | CCC(CC(=O)O)c1cc(F)c(N(CC)C2CCOCC2)c(Nc2cnc(OC)nc2)c1 (single isomer, unassigned) [Example 135, 3-(4-(ethyl(tetrahydro-2H-pyran-4-yl)amino)-3-fluoro-5-((2-methoxypyrimidin-5-yl)amino)phenyl) pentanoic acid] | < 50
17 | CCC(CC(=O)O)c1cc(F)c(N(CC)C2CCOCC2)c(Nc2cnc(OCC3CC3)nc2)c1 (single isomer, unassigned) [Example 136, 3-(3-((2-(cyclopropylmethoxy)pyrimidin-5-yl)amino)-4-(ethyl(tetrahydro-2H-pyran-4-yl)amino)-5-fluorophenyl)pentanoic acid] | < 50
18 | CCC(CC(=O)O)c1cc(F)c(N(CC)C2CCOCC2)c(Nc2ccc(OC)nc2)c1 (single isomer, unassigned) [Example 137, 3-(4-(ethyl(tetrahydro-2H-pyran-4-yl)amino)-3-fluoro-5-((6-methoxypyridin-3-yl)amino)phenyl) pentanoic acid] | < 50

The next lines start with the values.

Row | IC50 [nM] | Structure (SMILES)
19 | < 5 | CCC(CC(=O)O)c1cc(F)c(N(CC)C2CCOCC2)c(Nc2ccc(C#N)cn2)c1 (single isomer, unassigned) [Example 138, 3-(3-((5-cyanopyridin-2-yl)amino)-4-(ethyl (tetrahydro-2H-pyran-4-yl)amino)-5-fluorophenyl) pentanoic acid]
20 | < 5 | CCC(CC(=O)O)c1cc(F)c(N(CC)C2CCOCC2)c(Nc2cnc(OC)nc2)c1 (single isomer, unassigned) [Example 140, 3-(4-(ethyl(tetrahydro-2H-pyran-4-yl)amino)-3-fluoro-5-((2-methoxypyrimidin-5-yl)amino)phenyl) pentanoic acid]
21 | < 5 | CCC(CC(=O)O)c1cc(F)c(N(CC)C2CCOCC2)c(Nc2cnc(OCC3CC3)nc2)c1 (single isomer, unassigned) [Example 141, 3-(3-((2-(cyclopropylmethoxy)pyrimidin-5-yl)amino)-4-(ethyl(tetrahydro-2H-pyran-4-yl)amino)-5-fluorophenyl)pentanoic acid]
22 | < 5 | CCC(CC(=O)O)c1cc(F)c(N(CC)C2CCOCC2)c(Nc2ccc(OC)nc2)c1 (single isomer, unassigned) [Example 142, 3-(4-(ethyl(tetrahydro-2H-pyran-4-yl)amino)-3-fluoro-5-((6-methoxypyridin-3-yl)amino)phenyl) pentanoic acid]
23 | < 5 | CCN(c1ccc(C(COC)CC(=O)O)cc1Nc1ccc(Cl)cc1)C1CCS(=O)(=O)CC1 (single isomer, unassigned) [Example 170, 3-(3-((4-chlorophenyl)amino)-4-((1,1-dioxidotetrahydro-2H-thiopyran-4-yl)(ethyl)amino)phenyl)-4-methoxybutanoic acid]
24 | > 50 | CCOc1ncc(Nc2cc(C(COC)CC(=O)O)ccc2N(CC)C2CCS(=O)(=O)CC2)cn1 (single isomer, unassigned) [Example 171, 3-(4-((1,1-dioxidotetrahydro-2H-thiopyran-4-yl)(ethyl)amino)-3-((2-ethoxypyrimidin-5-yl)amino)phenyl)-4-methoxybutanoic acid]
25 | < 50 | CCN(c1ccc(C(COC)CC(=O)O)cc1Nc1ccc(F)cc1)C1CCS(=O)(=O)CC1 (single isomer, unassigned) [Example 172, 3-(4-((1,1-dioxidotetrahydro-2H-thiopyran-4-yl)(ethyl)amino)-3-((4-fluorophenyl)amino)phenyl)-4-methoxybutanoic acid]
26 | < 50 | CCN(c1ccc(C(COC)CC(=O)O)cc1Nc1ccc(Cl)cc1)C1CCS(=O)(=O)CC1 (single isomer, unassigned) [Example 174, 3-(3-((4-chlorophenyl)amino)-4-((1,1-dioxidotetrahydro-2H-thiopyran-4-yl)(ethyl)amino)phenyl)-4-methoxybutanoic acid]
27 | < 50 | CCCN(c1ccc(C(COC)CC(=O)O)cc1Nc1ccc(Cl)cc1)C1CCS(=O)(=O)CC1 (single isomer, unassigned) [Example 183, 3-(3-((4-chlorophenyl)amino)-4-((1,1-dioxidotetrahydro-2H-thiopyran-4-yl)(propyl)amino)phenyl)-4-methoxybutanoic acid]
28 | < 5 | CCCN(c1ccc(C(COC)CC(=O)O)cc1Nc1ccc(F)cc1)C1CCS(=O)(=O)CC1 (single isomer, unassigned) [Example 184, 3-(4-((1,1-dioxidotetrahydro-2H-thiopyran-4-yl)(propyl)amino)-3-((4-fluorophenyl)amino)phenyl)-4-methoxybutanoic acid]
